# Patent EP0219144A1, “Diphenyl ether herbicides” (SHELL INTERNATIONALE RESEARCH MAATSCHAPPIJ B.V., priority 1985, dated 1987)
# Experiment: physchem
# Format: physicochemical
# Conditions: 25% 1,4-dioxan, pH 7
# Protocol: The hydrolytic stability of the compounds of this invention was compared with representative examples of other phenoxy phthalides specifically described in Applicants' earlier EPA 145078. This property was evaluated by determining the half-life (in hours) at pH7.0 and 9.0 in 25% 1,4-dioxan at 39°C. The results of these tests are set out in Table I below, in which the test compounds are identified by reference to the substituent A in the following formula: [drawing 12] 'N.D.D.' = No detectable decomposition over a 200 hour period
row,Compound,half-life [h]
1,"CC1OC(=O)c2ccc(Oc3ccc(C(F)(F)F)cc3Cl)cc21 (centres unmarked) [CH(CH3), H, (2'-chloro-9'-trifluoro-methylphenoxy)-3-methyl phthalide, reference compound]",1060
2,"CC1(C)OC(=O)c2ccc(Oc3ccc(C(F)(F)F)cc3Cl)cc21 [C(CH3)2, H, 5-(2'-Chloro-4'-trifluoromethylphenoxy)-3,3-dimethyl phthalide]",4920

# More lines, now with the values ahead:
row,half-life [h],Compound
1,17.2,"COC1OC(=O)c2ccc(Oc3ccc(C(F)(F)F)cc3Cl)cc21 (centres unmarked) [CH(OCH3), H, reference compound]"
2,56.5,"O=C1OCc2cc(Oc3ccc(C(F)(F)F)cc3Cl)ccc21 [CH2, H, reference compound]"

# Same assay, conditions: 25% 1,4-dioxan, pH 9
row,Compound,half-life [h]
1,"CC1OC(=O)c2ccc(Oc3ccc(C(F)(F)F)cc3Cl)cc21 (centres unmarked) [CH(CH3), H, (2'-chloro-9'-trifluoro-methylphenoxy)-3-methyl phthalide, reference compound]",11
2,"CC1(C)OC(=O)c2ccc(Oc3ccc(C(F)(F)F)cc3Cl)cc21 [C(CH3)2, H, 5-(2'-Chloro-4'-trifluoromethylphenoxy)-3,3-dimethyl phthalide]",1900

# Next, values leading:
row,half-life [h],Compound
1,1.2,"COC1OC(=O)c2ccc(Oc3ccc(C(F)(F)F)cc3Cl)cc21 (centres unmarked) [CH(OCH3), H, reference compound]"
2,14.5,"O=C1OCc2cc(Oc3ccc(C(F)(F)F)cc3Cl)ccc21 [CH2, H, reference compound]"

# Same assay, conditions: pH 7
row,Half-Life pH 7.0,Compound
1,NDD,"CCC1(C)OC(=O)c2ccc(Oc3ccc(C(F)(F)F)cc3Cl)cc21 (centres unmarked) [C(CH3)(C2H5), H]"
2,NDD,"CC1(C)OC(=O)c2ccc(Oc3c(Cl)cc(C(F)(F)F)cc3Cl)cc21 [C(CH3)2, Cl]"
3,NDD,"CCC1(CC)OC(=O)c2ccc(Oc3ccc(C(F)(F)F)cc3Cl)cc21 [C(C2H5)2, H, 5-(2'-Chloro-4'-trifluoromethylphenoxy)-3,3-diethylphthalide]"

# Same assay, conditions: pH 9
row,Half-Life pH 9.0,Compound
1,NDD,"CCC1(C)OC(=O)c2ccc(Oc3ccc(C(F)(F)F)cc3Cl)cc21 (centres unmarked) [C(CH3)(C2H5), H]"
2,NDD,"CC1(C)OC(=O)c2ccc(Oc3c(Cl)cc(C(F)(F)F)cc3Cl)cc21 [C(CH3)2, Cl]"
3,NDD,"CCC1(CC)OC(=O)c2ccc(Oc3ccc(C(F)(F)F)cc3Cl)cc21 [C(C2H5)2, H, 5-(2'-Chloro-4'-trifluoromethylphenoxy)-3,3-diethylphthalide]"
